Results: patent publication US6770673B1, “Therapeutic uses of arglabin in combination with other chemotherapy agents” (priority 1997, dated 2004)
Read-outs that look alike come from different tables or passages of the source. Marks after values point to notes of the source that are not given here.

Tests used:
M-1 Sarcoma = experiment: Inhibition of tumor growth in implanted tumors; format: in vivo, mice and rats; details: dose 30 mg/kg
L-1210 = experiment: Implanted leukemia, survival; format: in vivo, mice and rats; details: dose 30 mg/kg
[1] = LD50, intraperitoneal injection; format: in vivo; details: 2% solution in DMSO
Description: Overall, the compounds in this family have low toxicity and are tolerated at dosages exceeding the therapeutic dosage.

immune system [2] = experiment: Immune system modulation in intact mice; format: in vivo
Method: In intact mice, injection of 10 mg/kg increased the total number of leukocytes through an increase in the absolute number of lymphocytes. […] The nitroblue tetrazolium assay was used to assess the function of the neutrophils. […] With a higher dosage, 20 mg/kg, a decrease in nitroblue tetrazolium positive neutrophils was seen, indicating a decrease in function.
The level of the T-suppressor subpopulation was not altered. At a higher dosage (20 mg/kg), overall leukocyte number was not altered, even though B-lymphocyte number decreased and T-lymphocyte decreased to a lesser extent. Natural killer cell number was increased.
The increase in T-lymphocytes was accompanied by an increase in the level of the T-helper subpopulation of T-lymphocytes.

[3] = tested on: Pliss Lymphosarcoma resistant to prospidine; experiment: Inhibition of growth of resistant tumour strains; duration of life and metastasis; format: in vivo, rats
[4] = in vivo
Method: Maximum tolerable doses (MTD) of arglabin and derivatives were determined by daily intraperitoneal administration to rats, guinea pigs or mice and daily intravenous administration to rabbits over a period of five to 20 days.

geranylgeranylation = experiment: Protein prenylation in myeloma Pai cells, naphthol cleavage and HPLC; format: cell-based, mouse; details: 60 μM, FIG. 8B
Method: (§1) The cells were collected by centrifugation at 600×g for 10 minutes and then washed twice in PBS. Control cells were grown in the absence of drug. The cells were solubilized in lysis buffer (50 mM Tris, pH 7.4, 25 mM EDTA, 0.05% Tween, 0.01 M NaCl) for 30 minutes on ice. Lysates were made by homogenization for 5 minutes at 4° C. and precipitated by centrifugation at 12,000×g for 10 minutes. The supernatant was collected. Proteins were precipitated with trichloroacetic acid and then successively washed with ethanol and ethyl ether. A selective naphthol cleavage of the bond between isoprenoides and proteins was performed as described by Epstein, W. W et al., (1991) Proc. Natl. Acad. Sci. USA 88:9668-9670. In general, 5 mg of a potassium naphthoxide and naphthol 4:1 mixture was added to approximately 10 mg of precipitated protein. After addition of 50 μl of dimethylformamide, the tubes were gassed with argon, capped and heated to 100° C. for eight to 15 hours. Reaction products were extracted with hexane and analyzed by HPLC (Waters System) using a 0.4×15 cm reverse-phase Nova-Pac C18 column. The column was eluted with 20% water in acetonitrile at a flow of 1.0 ml/minute. Napthol cleavage products were detected at 360 nm (FIG. 8) with a full-scale deflection of 0.01 A unit. […]

[5] = tested on: farnesylation of proteins; experiment: as above; format: cell-based, mouse; details: 60 μM, FIG. 8B
Method: as §1

[6] = tested on: Alveolar Cancer of the liver; experiment: Inhibition of tumor growth in implanted tumors; format: in vivo, mice and rats; details: dose 50 mg/kg
[7] = tested on: drug resistant metastasis of Pliss' lymphosarcoma; experiment: Model of drug resistant metastasis of Pliss' lymphosarcoma; format: in vivo, rats; details: alone
PC-1 = experiment: Inhibition of tumor growth in implanted tumors; format: in vivo, mice and rats; details: dose 30 mg/kg
sarcoma 45 = experiment: Disturbance of DNA synthesis in tumors (inhibition index); format: in vivo, rats; details: drug resistant sarcoma 45, alone
immune system [8] = experiment: Immune system modulation in mice immunodepressed with cyclophosphamide; format: in vivo; details: 10 mg/kg for 10 days
Method: Mice were immunodepressed by administration of 200 mg/kg of cyclophosphamide. […] The Hemagglutination test and delayed-type hypersensitivity reaction were determined before and after administration of drug.
The increased number of T-lymphocytes was accompanied by an elevation in the T-helper subpopulation as well as the T-suppressor subpopulation, although to a lesser extent.

Leucemia P-388 = experiment: Implanted leukemia, inhibition / survival; format: in vivo, mice and rats
[9] = tested on: Sarcoma-45 resistant to sarcolysin; experiment: Inhibition of growth of resistant tumour strains; format: in vivo, rats; details: dose 50 mg/kg
Sarcoma-45 = experiment: Inhibition of tumor growth in implanted tumors; format: in vivo, rats
immune system [10] = experiment: Immune system modulation in intact mice; format: in vivo; remark: listed apart in the source
stage IV cancer = experiment: Second clinical trial, 72 patients; format: in vivo, human
Description: A three to six month lag in dimethylaminoarglabin hydrochloride production halted the first clinical trial. […] Among the patients, 25% had carcinoma of the stomach, 16.7% had liver cancer, 18.1% had lung cancer and the remaining 40.2% had esophageal, breast, ovarian, pancreatic, brain or lymphosarcoma. Patients with poorer states had metastases to the liver (25%), retroperitoneal lymph nodes (25), ascites (22.2%) and exudative pleuritis (11.1%).

[11] = Ability to keep normal activities, minimum signs of the disease
[12] = Maintains themself, but is not able to work
[13] = Needs occasional assistance, but is able to maintain themself
[14] = Normal activities are hardly performable, some signs of the disease

CC1=CCC23OC2(C)CCC2C(CN(C)C)C(=O)OC2C13.Cl (centres unmarked) [Dimethylaminoarglabin hydrochloride]
Inhibition of Tumour Growth, % - M-1 Sarcoma (M-1 Sarcoma): 83.5** %
L-1210 - increase in survival (L-1210): +60%
LD50 ([1]; mice): 190 to 220 mg/kg
LD50 ([1]; rats): 280 to 310 mg/kg
total number of leukocytes (immune system [2]; 10 mg/kg): increased
B-lymphocytes (immune system [2]; 10 mg/kg daily IP for 10 days): remained stable
overall leukocyte count (immune system [2]; 10 mg/kg daily IP for 10 days): increased
leukocyte number (immune system [2]; 20 mg/kg): did not result in an overall increase
nitroblue tetrazolium positive neutrophils (immune system [2]; 20 mg/kg): decrease
natural killer cell number (immune system [2]; 20 mg/kg daily IP for 10 days): increased
Inhibition of Tumour Strains Growth, % - Resistant Forms - Pliss Lymphosarcoma to prospidine ([3]; dose 30 mg/kg): 62.3%
Inhibition of Tumour Strains Growth, % - Resistant Forms - Pliss Lymphosarcoma to prospidine ([3]; dose 50 mg/kg): 87.4*** %
maximum dosage (MTD) ([4]; guinea pig): 45 mg/kg
maximum dosage (MTD) ([4]; mouse): 30 mg/kg
maximum dosage (MTD) ([4]; rabbit): 20 mg/kg
maximum dosage (MTD) ([4]; rat): 50 mg/kg
geranylgeranyl peak (geranylgeranylation): appeared as in the control
peak corresponding to the farnesylcysteine derivative [5]: does not appear on the chromatogram
Inhibition of Tumour Growth, % - Alveolar Cancer of the liver [6]: 80.0%
duration of life in comparison with the control group [7]: 128%
Inhibition of Tumour Growth, % - PC-1 (PC-1): 84.3* %
DNA inhibition index (sarcoma 45): 99%
leukopenia and lymphopenia (immune system [8]): reduced the leukopenia and lymphopenia
Leucemia P-388 PALT - increase in survival (Leucemia P-388; dose 30 mg/kg): +144%
Leucemia P-388 PALT - increase in survival (Leucemia P-388; dose 50 mg/kg): +109.0%
Inhibition of Tumour Strains Growth, % - Resistant Forms - Sarcoma-45 to sarcolysin [9]: 90.1*** %
Inhibition of Tumour Growth, % - Sarcoma-45 (Sarcoma-45; dose 30 mg/kg): 86.5*** %
Inhibition of Tumour Growth, % - Sarcoma-45 (Sarcoma-45; dose 50 mg/kg): 83.1** %
hemagglutination titer (immune system [10]; 100 mg/kg IP): slight decrease
hemagglutination test index (immune system [10]; repeated IP 30 mg/kg, day 10): decreased
hemagglutination titers (immune system [10]; repeated IP 10 and 20 mg/kg, days 5 and 10): increased
delayed-type hypersensitivity reaction (immune system [10]; repeated IP, day 5): No effect
delayed-type hypersensitivity reaction (immune system [10]; repeated IP, day 10): increased by day 10
delayed-type hypersensitivity reaction (immune system [10]; single 50 mg/kg IP): did not alter
hemagglutination titer (immune system [10]; single 50 mg/kg IP): did not alter
patients with no response (stage IV cancer; 8 of 72): 11.1%
patients responded to therapy (stage IV cancer; 64 of 72): 88.9%
% of Patients - Absence of dynamics or stabilization (stage IV cancer; 72 patients): 31.9%
% of Patients - Partial regression over or equal to 50% decrease of tumor or metastasis (stage IV cancer; 72 patients): 61.1%
% of Patients - Progression (stage IV cancer; 72 patients): 7.0%
Number of Patients % - Karnofsky scale 90 (stage IV cancer; [11]): 41.7%
Number of Patients abs, N - Karnofsky scale 90 (stage IV cancer; [11]): 30
Thrombocytes, mean index of peripheral blood (stage IV cancer; After Treatment (before treatment 2.0)): 2.8 thsd
Erythrocytes, mean index of peripheral blood (stage IV cancer; After Treatment (before treatment 2.3-3.0)): 3.0 10^12/l-10^9/l
Leukocytes, mean index of peripheral blood (stage IV cancer; After Treatment (before treatment 4.5-5.5)): 4.0 10^12/l-10^9/l
Lymphocytes, mean index of peripheral blood (stage IV cancer; After Treatment (before treatment 8-15)): 15-20
Thrombocytes, mean index of peripheral blood (stage IV cancer; During Treatment (before treatment 2.0)): 2.3 thsd
Erythrocytes, mean index of peripheral blood (stage IV cancer; During Treatment (before treatment 2.3-3.0)): 2.4-3.0 10^12/l-10^9/l
Leukocytes, mean index of peripheral blood (stage IV cancer; During Treatment (before treatment 4.5-5.5)): 3.5-4.0 10^12/l-10^9/l
Lymphocytes, mean index of peripheral blood (stage IV cancer; During Treatment (before treatment 8-15)): 28-35
Number of Patients % - Karnofsky scale 30 (stage IV cancer; Extreme invalidism): 4.2%
Number of Patients abs, N - Karnofsky scale 30 (stage IV cancer; Extreme invalidism): 3
Number of Patients % - Karnofsky scale 70 (stage IV cancer; [12]): 33.3%
Number of Patients abs, N - Karnofsky scale 70 (stage IV cancer; [12]): 24
Number of Patients % - Karnofsky scale 60 (stage IV cancer; [13]): 6.9%
Number of Patients abs, N - Karnofsky scale 60 (stage IV cancer; [13]): 5
Number of Patients % - Karnofsky scale 80 (stage IV cancer; [14]): 13.9%
Number of Patients abs, N - Karnofsky scale 80 (stage IV cancer; [14]): 10
side effects (stage IV cancer; patients, hydrochloride): No side effects
